Data taken from patent US20070099863A1, “Compounds for the treatment of demyelinating and autoimmune diseases” (priority 2003, published 2007).
Where a name gives a salt, the structure may show the parent alone. One block for each compound: values may come before it.

Columns and labels:
P2X1 = molecular target: T1, P2X1 (Homo sapiens, UniProt P51575); conditions: P2X1 subtype; read-out: IC50 in relation to P2X1; cited from earlier work
T1 sequence (P51575 1-399): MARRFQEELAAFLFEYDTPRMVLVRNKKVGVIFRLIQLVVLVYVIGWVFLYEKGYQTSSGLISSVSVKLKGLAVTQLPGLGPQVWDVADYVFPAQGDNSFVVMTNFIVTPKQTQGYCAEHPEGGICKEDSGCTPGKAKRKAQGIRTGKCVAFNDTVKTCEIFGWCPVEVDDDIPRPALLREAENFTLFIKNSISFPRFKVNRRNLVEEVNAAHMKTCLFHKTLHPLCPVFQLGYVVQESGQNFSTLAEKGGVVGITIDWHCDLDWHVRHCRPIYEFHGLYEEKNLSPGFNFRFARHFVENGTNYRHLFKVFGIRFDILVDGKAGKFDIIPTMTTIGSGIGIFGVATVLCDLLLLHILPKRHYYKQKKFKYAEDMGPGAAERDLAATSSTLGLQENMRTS

P2X4 = molecular target: T2, P2X4 (Homo sapiens, UniProt Q99571); conditions: P2X4 subtype; read-out: IC50 in relation to P2X4; cited from earlier work
T2 sequence (Q99571 1-388): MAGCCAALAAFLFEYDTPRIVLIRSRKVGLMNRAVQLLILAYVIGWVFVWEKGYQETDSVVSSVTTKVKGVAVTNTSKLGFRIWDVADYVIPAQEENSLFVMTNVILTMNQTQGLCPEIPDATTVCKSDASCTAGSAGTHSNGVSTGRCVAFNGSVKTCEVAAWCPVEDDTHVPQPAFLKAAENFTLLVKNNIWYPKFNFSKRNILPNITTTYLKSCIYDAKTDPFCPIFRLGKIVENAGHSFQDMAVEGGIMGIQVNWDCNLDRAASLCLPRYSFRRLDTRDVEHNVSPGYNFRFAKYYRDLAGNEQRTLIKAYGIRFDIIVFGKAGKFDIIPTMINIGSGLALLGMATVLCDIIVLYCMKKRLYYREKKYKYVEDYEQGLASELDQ

EAE in DA rats = experiment: Chronic-recurrent-remittent EAE model; type: in vivo, rat; conditions: o-ATP 2.5 mg/kg every 12 h, from maximum intensity of symptoms
Protocol: Later, the efficacy of o-ATP in improving the symptoms of EAE was evaluated in a chronic-recurrent-remittent model. For this, DA rats were immunised with syngeneic spinal cord, the appearance of severe neurological deficits being observed 7-9 days post-injection, and which reached their first peak around 11 days.

[1] = system: P2X receptors in oligodendrocytes; experiment: Cytosolic calcium levels (Fura-2) in oligodendrocyte cultures; type: cell-based, rat; conditions: for promotion of the increase of [Ca2+]i generated by ATP: propofol 60 μM
Protocol: (§1) The cell cultures were carried out from the optic nerve of the perinatal rat (P12) following established protocols, which were adapted and introduced into the laboratory according to a recent description (Matute et al, 1997, Proc. Natl. Acad. Sci. USA 94, 8830-8835).
The concentration of cytosol calcium was determined by the method of Grynkiewikcz et al (1985; J. Biol. Chem. 260, 3440-3450). The oligodendrocytes were loaded with […] of Fura-2/AM, and they were then washed and studied in a Zeiss inverted microscope equipped with a monochromator, 40× immersion objective, an Orca high resolution digital camera, and AquaCosmos software (Hamamatsu Photonics). The changes in cytosol calcium levels in response to agonists and antagonists, in the presence and absence of extracellular calcium, were studied. The calibration was performed at the end of the studies by means of the successive application of ionomycin and EGTA, and the calcium concentration was estimated using the measurement of the 340/380 nm ratio.

oligodendrocytes = experiment: Oligodendroglial death in culture; type: cell-based, rat; conditions: for toxicity of purinergic agonists for oligodendrocytes: culture
Protocol: as §1, with “Death is calcium dependent, since its elimination from the culture media leads to it not being caused. […] The” for “The”

[2] = system: P2X receptors in oligodendrocytes; experiment: Whole-cell patch-clamp recordings in cultured oligodendrocytes; type: cell-based, rat; conditions: for EC50: cultured oligodendrocytes, whole-cell patch-clamp, read-out: EC50 of amplitude of currents generated by agonist; for induction of input current by agonist: agonist 100 μM
Protocol: as §1
The electrophysiological recordings were carried out in 2 to 5 day cultures, and according to the guidelines indicated in previous works (Patneau et al 1994, Neuron 12: 357-371). The cells were recorded in a chamber which allowed the composition of the extracellular medium to vary by means of a constant flow (0.5-1 mL/min). The recording electrodes were glass capillaries which contained specific solutions compatible with the cytoplasm ion concentrations. The study of the responses mediated by the purinergic receptors was carried out using the “whole-cell patch-clamp” technique, measuring the currents generated by the external application of selective agonists and antagonists of the aforementioned receptors.

EAE in Lewis rats = experiment: Acute EAE induced with basic myelin protein; type: in vivo, rat; conditions: 7 to 14 days post-injection
P2X7 receptors = experiment: P2X7 receptor levels in lumbar-sacral spinal cord of EAE animals (Western blot); type: in vivo, rat; conditions: EAE animals treated with o-ATP; untreated EAE reduced by half
P2X3 = molecular target: T3, P2X3 (Homo sapiens, UniProt P56373); conditions: P2X3 subtype; read-out: IC50 in relation to P2X3; cited from earlier work
T3 sequence (P56373 1-397): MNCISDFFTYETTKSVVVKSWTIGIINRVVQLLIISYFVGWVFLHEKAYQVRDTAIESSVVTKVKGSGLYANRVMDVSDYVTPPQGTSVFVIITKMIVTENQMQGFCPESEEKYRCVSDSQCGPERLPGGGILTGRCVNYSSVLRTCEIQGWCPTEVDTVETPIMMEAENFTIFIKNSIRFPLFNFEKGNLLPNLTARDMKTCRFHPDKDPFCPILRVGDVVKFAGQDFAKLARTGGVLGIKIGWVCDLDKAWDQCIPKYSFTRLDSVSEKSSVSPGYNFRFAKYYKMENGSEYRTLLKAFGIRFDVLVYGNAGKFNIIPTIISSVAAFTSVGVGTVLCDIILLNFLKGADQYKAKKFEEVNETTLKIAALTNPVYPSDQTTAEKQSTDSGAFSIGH

[3] = system: oligodendrocytes of isolated optic nerve; experiment: Isolated optic nerve perfusion, oligodendrocyte damage in situ; design: species or system rat
Protocol: Next, they were incubated with purinergic agonists and antagonists for different times. Later, the nerves were perfused for 1 to 24 hours with normal aCSF saturated with oxygen. After this time passed the damage was evaluated histologically as we have described in vivo (Matute, 1998, Proc. Natl. Acad. Sci. USA 95: 10229-10234), and the biochemical changes which are underlying to this damage were analysed.
To determine if ATP is toxic to the oligodendrocytes in a preparation of nerve tissue without dissociating, entire optic nerves isolated from adult rats were perfused with artificial cerebrospinal fluid with ATP (100 μM) for 3 h. […] The damaged cells are located in the longitudinal axis of the nerve and make up part of interfascicular oligodendrocyte rows.

optic nerve = experiment: Infusion of agonists over the optic nerve in vivo (osmotic pumps); design: species or system rabbit; conditions: infused 3 days by osmotic pumps, examined 7 days after start
Protocol: The experiments on the optic nerve were carried out in rabbits (New Zealand White) which, due to their size, enable better manipulation in experimental surgery. The procedure used was that described previously (Matute, 1998, Proc. Natl. Acad. Sci. 95, 10229-10234). The purinergic agonists were applied using osmotic micropumps which released small quantities of solute for a determined time. Later, the effect of this application on the nerve was evaluated by means of a panel of oligodendrocyte markers and their progenitors, myelin, axonal integrity, astrogliosis y microgliosis.
Next, the ATP-γ-S and BzATP agonists were infused over the optic nerve using osmotic pumps which released very small quantities of solute for 3 days. […] Also, this zone had intense gliosis, lack of myelin and axonal damage (FIG. 6).

Compound: O=C(Nc1ccc(C(=O)Nc2ccc(C(=O)Nc3ccc(S(=O)(=O)O)c4cc(S(=O)(=O)O)cc(S(=O)(=O)O)c34)cc2)cc1)Nc1ccc(C(=O)Nc2ccc(C(=O)Nc3ccc(S(=O)(=O)O)c4cc(S(=O)(=O)O)cc(S(=O)(=O)O)c34)cc2)cc1 [NF279]
IC50 (P2X1): 0.02 µM | IC50 (P2X4): > 30 µM

Compound: Nc1ncnc2c1ncn2[C@@H](C=O)O[C@@H](C=O)COP(=O)(O)OP(=O)(O)OP(=O)(O)O [o-ATP, sodium salt of Adenosine 5-triphosphate, oxidised with periodate]
effect on symptoms of chronic-recurrent-remittent EAE (EAE in DA rats): reduced the symptoms and also eliminated those common to the chronic phase | reduction of the increase in [Ca2+]i induced by Bz-ATP ([1]; o-ATP 1 mM): 63±8 | effect on oligodendroglial death due to ATP (oligodendrocytes; o-ATP (FIG. 4)): can be prevented | effect on ATP currents ([2]; o-ATP, concentration not given): partially blocks | effect on symptoms of acute EAE (EAE in Lewis rats; o-ATP 1 and 5 mg/kg every 12 h): reduced or prevented the appearance of symptoms | levels of P2X7 receptors in lumbar-sacral spinal cord (P2X7 receptors): returned to those of the controls

Compound: O=c1[nH]cnc2c1ncn2C1OC(COP(=O)(O)OP(=O)(O)OP(=O)(O)OP(=O)(O)OP(=O)(O)OCC2OC(n3cnc4c(=O)[nH]cnc43)C(O)C2O)C(O)C1O (centres unmarked) [Ip5I, pentapotassium salt of P^1,P^5-Diinosine-5-pentaphosphate]
IC50 (P2X1): 0.003 µM | IC50 (P2X3): 3 µM

Compound: [Cu+2] [Cu^2+]
effect on ATP currents ([2]; Cu2+ 1 mM): reduces ATP currents

Compound: Nc1ncnc2c1ncn2[C@@H]1O[C@H](COP(=O)(O)OP(=O)(O)OP(=O)(O)O)[C@@H](O)[C@H]1O [ATP]
cytosol [Ca2+]i after agonist ([1]; ATP 10 μM, basal 250±65 nM): 1200 ± 468 nM | increase in number of cells with nuclear condensation vs control nerves ([3]; ATP 100 μM for 3 h, isolated adult rat optic nerve): > 3 times | death of oligodendrocytes (oligodendrocytes; ATP 0.01-1 mM, all concentrations tested): 15-27% | oligodendrocytes showing non-desensitising input current ([2]; ATP 1 mM, n=47): 77.3%±7.9 | EC50 [2]: 8770 µM

Compound: Nc1ncnc2c1ncn2[C@@H]1O[C@H](COP(=O)(O)CP(=O)(O)OP(=O)(O)O)[C@@H](O)[C@H]1O [α,β-Me-ATP, α,β-methylene-ATP]
toxicity of purinergic agonists for oligodendrocytes (oligodendrocytes): toxic | induction of input current by agonist [2]: did not generate currents

Compound: Nc1ncnc2c1ncn2[C@@H]1O[C@H](COP(=O)(O)OP(=O)(O)OP(O)(O)=S)[C@@H](O)[C@H]1O [ATP-γ-S]
histological examination of optic nerve after agonist infusion (optic nerve): tissue damage | toxicity of purinergic agonists for oligodendrocytes (oligodendrocytes): toxic

Compound: Cc1nc(N=Nc2ccc(S(=O)(=O)O)cc2S(=O)(=O)O)c(COP(=O)(O)O)c(C=O)c1O [PPADS, tetrasodium salt of pyridoxalphosphate-6-azophenyl-2′,4′-disulfonic acid]
effect on Ca2+ entrance induced by Bz-ATP ([1]; PPADS): blocked | effect on [Ca2+]i response to ATP ([1]; PPADS 50 μM, ATP 10 μM): repressed | effect on ATP-induced oligodendrocyte death in isolated optic nerve ([3]; PPADS 10 μM with ATP): prevents the death of the oligodendrocytes | effect on ATP-induced oligodendrocyte death (oligodendrocytes; PPADS 50 μM): inhibited | effect on currents induced by ATP ([2]; PPADS 100 μM): completely blocked | effect on symptoms and course of acute EAE (EAE in Lewis rats; PPADS 30 mg/kg two times per day): did not improve the symptoms or the course of the disease

EC50 [2]: 520 µM
Compound: 2′,3′-O-(4-benzoyl-4-benzoyl) [BzATP]
entrance of Ca2+ into oligodendrocytes ([1]; Bz-ATP 0.01-1 mM): activates the entrance of Ca^2+ into oligodendrocytes in a dose dependent way | histological examination of optic nerve after agonist infusion (optic nerve): tissue damage | toxicity of purinergic agonists for oligodendrocytes (oligodendrocytes): toxicity similar to ATP | induction of input current by agonist [2]: induced similar responses

Compound: CC(C)c1cccc(C(C)C)c1O [propofol]
promotion of the increase of [Ca2+]i generated by ATP ([1]; 0.1 mM ATP): 60%±22 | promotion of the increase of [Ca2+]i generated by ATP ([1]; 1 mM ATP): 77%±34 | effect on ATP currents ([2]; propofol 60 μM): does not alter these currents

Compound: O=C(Nc1cccc(C(=O)Nc2ccc(S(=O)(=O)O)c3cc(S(=O)(=O)O)cc(S(=O)(=O)O)c23)c1)Nc1cccc(C(=O)Nc2ccc(S(=O)(=O)O)c3cc(S(=O)(=O)O)cc(S(=O)(=O)O)c23)c1 [NF023, hexasodium salt of 8,8′-[carbonylbis[imino-3,1-phenylenecarbonylimino]bis-1,3,5-naphthalenetrisulfonic acid]]
IC50 (P2X3): 29 µM
